Assay results: ChEMBL document CHEMBL4808199, “Cyclopentenone-Containing Tetrahydroquinoline and Geldanamycin Alkaloids from Streptomyces malaysiensis as Potential Anti-Androgens against Prostate Cancer Cells” (J Nat Prod, 2021)
pIC50: −log10 of the molar value. The source made the active and inactive calls. No cut-off for these calls is given here.

What was measured:
CWR22R [1] = assay: Cytotoxicity against human 22Rv1 cells; format: functional, cell-based
NCI-H446 = assay: Cytotoxicity against human H446 cells; format: functional, cell-based
LNCaP C4-2B [2] = assay: Cytotoxicity against human C42B cells; format: functional, cell-based
MGC-803 = assay: Cytotoxicity against human MGC-803 cells; format: functional, cell-based
MDA-MB-231 = assay: Cytotoxicity against human MDA-MB-231 cells; format: functional, cell-based
[3] = Selective index, ratio of IC50 for human RWPE1 to IC50 for human LNCaP C4-2B cells; format: toxicity; conditions: RWPE1 cells and LNCaP C4-2B cells, read-out: Selectivity Index
RWPE-1 = assay: Cytotoxicity against human RWPE-1 cells; format: cell-based
LNCaP C4-2B [4] = assay: Induction of morphological changes in human C4-2B cells assessed as decrease in cell size incubated for 24 hrs by microscopy; format: functional, cell-based
LNCaP C4-2B [5] = assay: Induction of cell cycle arrest in human C4-2B cells assessed as accumulation of cells at G0/G1 phase at 0.3 uM incubated for 48 hrs by RED-B-HLi fluorescence assay (reference value: 41.57%); format: functional
CWR22R [6] = assay: Induction of apoptosis in human 22Rv1 cells assessed as inhibition of Cyclin E protein expression at 0.15 to 0.6 uM incubated for […] by Immunoblotting analysis; format: functional, cell-based; conditions: dose 0.15-0.6 µM
[7] = Selective index, ratio of IC50 for human RWPE1 to IC50 for human H446 cells
LNCaP C4-2B [8] = assay: Induction of morphological changes in human C4-2B cells assessed as increase in intracellular spaces incubated for 24 hrs by microscopy; format: functional, cell-based
LNCaP C4-2B [9] = assay: Induction of cell cycle arrest in human C4-2B cells assessed as accumulation of cells at G2-M phase at 0.3 uM incubated for 48 hrs by RED-B-HLi fluorescence assay (reference value: 15.74%); format: functional
CWR22R [10] = assay: Inhibition of colony formation in human 22Rv1 cells at 0.075 to 0.3 uM for 12 days by crystal violet staining based assay; format: functional, cell-based; conditions: dose 0.075-0.3 µM, time 12.0 day
LNCaP C4-2B [11] = assay: Induction of apoptosis in human C4-2B cells assessed as increase in caspase 3/7 activity at 0.3 uM after 24 hrs relative to control; format: functional, cell-based
CWR22R [12] = assay: Induction of apoptosis in human 22Rv1 cells assessed as increase in cleaved PARP1 level after 24 hrs by immunoblotting analysis relative to control; format: functional, cell-based
LNCaP C4-2B [13] = assay: Inhibition of androgen receptor protein expression in human C4-2B cells incubated for […] by Immunoblotting analysis; format: functional, cell-based
LNCaP C4-2B [14] = assay: Induction of apoptosis in human C4-2B cells assessed as increase in cleaved 7 level after 24 hrs by immunoblotting analysis relative to control; format: functional, cell-based
CWR22R [15] = assay: Induction of apoptosis in human 22Rv1 cells assessed as inhibition of KLK3 mRNA expression at 0.15 to 0.6 uM incubated for […] by qRT-PCR analysis; format: functional, cell-based; conditions: dose 0.15-0.6 µM
LNCaP C4-2B [16] = assay: Inhibition of androgen receptor mRNA expression in human C4-2B cells incubated for […] by qRT-PCR analysis; format: functional, cell-based
LNCaP C4-2B [17] = assay: Inhibition of colony formation in human C4-2B cells at 0.075 to 0.3 uM for 12 days by crystal violet staining based assay; format: functional, cell-based; conditions: dose 0.075-0.3 µM, time 12.0 day
LNCaP C4-2B [18] = assay: Induction of apoptosis in human C4-2B cells assessed as increase in cleaved PARP1 level after 24 hrs by immunoblotting analysis relative to control; format: functional, cell-based
LNCaP C4-2B [19] = assay: Induction of apoptosis in human C4-2B cells assessed as inhibition of KLK2 mRNA expression at 0.075 to 0.3 uM incubated for […] by qRT-PCR analysis; format: functional, cell-based; conditions: dose 0.075-0.3 µM
CWR22R [20] = assay: Inhibition of androgen receptor mRNA expression in human 22Rv1 cells incubated for […] by […] analysis; format: functional, cell-based
CWR22R [21] = assay: Induction of apoptosis in human 22Rv1 cells assessed as increase in caspase 3/7 activity at 0.3 uM after 24 hrs relative to control; format: functional, cell-based
LNCaP C4-2B [22] = assay: Induction of apoptosis in human C4-2B cells assessed as inhibition of Cmyc protein expression at 0.075 to 0.3 uM incubated for […] by Immunoblotting analysis; format: functional, cell-based; conditions: dose 0.075-0.3 µM
LNCaP C4-2B [23] = assay: Induction of cell cycle arrest in human C4-2B cells assessed as accumulation of cells at S phase at 0.3 uM incubated for 48 hrs by RED-B-HLi fluorescence assay (reference value: 42.69%); format: functional
LNCaP C4-2B [24] = assay: Induction of apoptosis in human C4-2B cells assessed as inhibition of Cyclin E protein expression at 0.075 to 0.3 uM incubated for […] by Immunoblotting analysis; format: functional, cell-based; conditions: dose 0.075-0.3 µM
CWR22R [25] = assay: Inhibition of androgen receptor protein expression in human 22Rv1 cells incubated for […] by Immunoblotting analysis; format: functional, cell-based
CWR22R [26] = assay: Induction of apoptosis in human 22Rv1 cells assessed as inhibition of Cmyc protein expression at 0.15 to 0.6 uM incubated for […] by Immunoblotting analysis; format: functional, cell-based; conditions: dose 0.15-0.6 µM, time […]
LNCaP C4-2B [27] = assay: Induction of apoptosis in human C4-2B cells assessed as inhibition of KLK3 mRNA expression at 0.075 to 0.3 uM incubated for […] by qRT-PCR analysis; format: functional, cell-based; conditions: dose 0.075-0.3 µM
CWR22R [28] = assay: Induction of apoptosis in human 22Rv1 cells assessed as inhibition of KLK2 mRNA expression at 0.15 to 0.6 uM incubated for […] by qRT-PCR analysis; format: functional, cell-based; conditions: dose 0.15-0.6 µM
CWR22R [29] = assay: Induction of apoptosis in human 22Rv1 cells assessed as increase in cleaved 7 level after 24 hrs by immunoblotting analysis relative to control; format: functional, cell-based

CC[C@@H]1[C@@H](C)O[C@@](OC)([C@@H](C)[C@H](O)[C@H](C)[C@H]2OC(=O)/C=C/C=C/[C@H](C)[C@@H]([C@@H](C)[C@@H](O)[C@H](C)[C@@]3(OC)C[C@@H](OC)[C@H](CC)[C@@H](C)O3)OC(=O)/C=C/C=C/[C@@H]2C)C[C@H]1OC
pIC50 (CWR22R [1]): < 4.40
pIC50 (NCI-H446): < 4.40
pIC50 (LNCaP C4-2B [2]): < 4.40
pIC50 (MGC-803): < 4.40
pIC50 (MDA-MB-231): < 4.40

CC[C@@H](/C=C/C(=O)[C@@H](C)[C@H](O)[C@H](C)[C@H]1OC(=O)/C=C/C=C/[C@H](C)[C@@H]([C@@H](C)[C@@H](O)[C@H](C)C(=O)/C=C/[C@H](CC)[C@@H](C)O)OC(=O)/C=C/C=C/[C@@H]1C)[C@@H](C)O
pIC50 (CWR22R [1]): < 4.40
pIC50 (NCI-H446): 4.60
pIC50 (LNCaP C4-2B [2]): 4.60
pIC50 (MGC-803): < 4.40
pIC50 (MDA-MB-231): < 4.40

CO[C@H]1/C=C\C=C(/C)C(=O)NC2=CC(=O)C(O)=C(C[C@@H](C)C[C@H](OC)[C@H](O)[C@@H](C)/C=C(\C)[C@@H]1OC(N)=O)C2=O
pIC50 (CWR22R [1]): 4.60
pIC50 (NCI-H446): 4.60
pIC50 (LNCaP C4-2B [2]): 4.96
pIC50 (MGC-803): 4.72
pIC50 (MDA-MB-231): 4.77

COC1=C2C[C@@H](C)C[C@H](OC)[C@H](O)[C@@H](C)/C=C(\C)[C@H](OC(N)=O)[C@@H](OC)/C=C\C=C(/C)C(=O)NC(=C(SC)C1=O)C2=O
pIC50 (CWR22R [1]): 5.43
pIC50 (NCI-H446): 5.41
pIC50 (LNCaP C4-2B [2]): 5.44
pIC50 (MGC-803): 5.10
pIC50 (MDA-MB-231): 5.28

COC1=C2C[C@@H](C)C[C@H](OC)[C@H](O)[C@@H](C)/C=C(\C)[C@H](OC(N)=O)[C@@H](OC)/C=C\C=C(/C)C(=O)NC(=CC1=O)C2=O [GELDANAMYCIN]
selectivity ratio [3]: 7.6
pIC50 (CWR22R [1]): 6.07
pIC50 (RWPE-1): 5.42
pIC50 (NCI-H446): 5.66
pIC50 (LNCaP C4-2B [2]): 6.30
pIC50 (MGC-803): 5.48
pIC50 (MDA-MB-231): 5.72

CC[C@@H]1[C@@H](C)O[C@@](OC)(/C(C)=C/[C@H](C)[C@H]2OC(=O)/C=C/C=C/[C@H](C)[C@@H]([C@@H](C)/C=C(\C)[C@@]3(OC)C[C@@H](OC)[C@H](CC)[C@@H](C)O3)OC(=O)/C=C/C=C/[C@@H]2C)C[C@H]1OC
pIC50 (CWR22R [1]): 4.64
pIC50 (NCI-H446): 4.60
pIC50 (LNCaP C4-2B [2]): 4.85
pIC50 (MGC-803): 5.00
pIC50 (MDA-MB-231): 5.14

CNC(=O)c1ccc(N2C(=S)N(c3ccc(C#N)c(C(F)(F)F)c3)C(=O)C2(C)C)cc1F [ENZALUTAMIDE]
selectivity ratio [3]: > 2.2
pIC50 (CWR22R [1]): 4.42
pIC50 (RWPE-1): < 4.40

COC(=O)[C@@]1(O)C(OC)=C2C[C@@H](C)C[C@H](OC)[C@H](O)[C@@H](C)/C=C(\C)[C@H](OC(N)=O)[C@@H](OC)/C=C\C=C(/C)C(=O)N[C@@H]1C2=O
pIC50 (CWR22R [1]): < 4.40
pIC50 (NCI-H446): 5.54
pIC50 (LNCaP C4-2B [2]): < 4.40
pIC50 (MGC-803): < 4.40
pIC50 (MDA-MB-231): < 4.40

COC[C@]1(CCC(C)=C(C)C)Nc2ccc(C(=O)NC3=C(O)CCC3=O)cc2C[C@@H]1Cl
Activity (LNCaP C4-2B [4]): Active
Activity (LNCaP C4-2B [5]): 56.03%
Activity (CWR22R [6]): Active
Selectivity Index [7]: 3.1
Activity (LNCaP C4-2B [8]): Active
Activity (LNCaP C4-2B [9]): 19.67%
inhibition (CWR22R [10]): Active
pIC50 (CWR22R [1]): 6.57
Activity (LNCaP C4-2B [11]): Active
Activity (CWR22R [12]): Dose-Dependent Effect
inhibition (LNCaP C4-2B [13]): Active
pIC50 (RWPE-1): 6.68
Activity (LNCaP C4-2B [14]): Dose-Dependent Effect
Activity (CWR22R [15]): Active
inhibition (LNCaP C4-2B [16]): Active
inhibition (LNCaP C4-2B [17]): Active
Activity (LNCaP C4-2B [18]): Dose-Dependent Effect
pIC50 (NCI-H446): 7.15
Activity (LNCaP C4-2B [19]): Active
inhibition (CWR22R [20]): Active
Activity (CWR22R [21]): Active
Activity (LNCaP C4-2B [22]): Active
pIC50 (LNCaP C4-2B [2]): 7.17
pIC50 (MGC-803): 6.96
Activity (LNCaP C4-2B [23]): 24.3%
Activity (LNCaP C4-2B [24]): Active
inhibition (CWR22R [25]): Active
Activity (CWR22R [26]): Active
pIC50 (MDA-MB-231): 6.70
Activity (LNCaP C4-2B [27]): Active
Activity (CWR22R [28]): Active
Activity (CWR22R [29]): Dose-Dependent Effect

CO[C@H]1C[C@H](C)Cc2cc(O)cc(c2)NC(=O)/C(C)=C/CC[C@H](OC)[C@@H](OC(N)=O)/C(C)=C/[C@H](C)[C@H]1O
pIC50 (CWR22R [1]): 4.46
pIC50 (NCI-H446): 4.55
pIC50 (LNCaP C4-2B [2]): 4.49
pIC50 (MGC-803): < 4.40
pIC50 (MDA-MB-231): < 4.40
